Data reported in patent US12723024B2 (priority 2021, dated 2026).
Where two headings read alike, the source gives them in different places.

Legend:
[1] = Dynamic vapor sorption (DVS) test at 25° C.; format: physicochemical; conditions: for Desorp. (%) / Sorp. (%) / Water absorbed from 40% RH to 95% RH: 25° C.; for Desorp. (%) / Sorp. (%): cycle 40-0-95-0-40% RH; for XRPD after DVS test / Hygroscopicity: DVS at 25° C.; for Hygroscopicity: grade in words
[2] = Thermogravimetric analysis (TGA) weight loss; format: physicochemical; conditions: large scale batch
[3] = Hygroscopicity (water uptake) of salt hits; format: physicochemical; conditions: salt screening sample; for Hygroscopicity: grade in words
Source text: (§1) According to the salt screening results (see Table 4), totally 19 potential salt hits were identified. All the potential salt hits were further investigated by Differential Scanning Calorimetry (DSC), Thermogravimetric analysis (TGA), H-NMR, Ion chromatography (IC), Karl Fischer titration (KF), and Polarized Light Microscopy (PLM) to confirm their identity and evaluate their physicochemical properties as shown in Table 5 below.

[4] = Salt screening (slurry crystallization); format: physicochemical; design: key to Salt screening result: (+) shows that a crystalline salt was formed; (−) physical mixtures; conditions: for Polymorph obtained in salt screening: XRPD; for Salt screening result: slurry 50° C. then 25° C.
Description: About 45 mg was added to a suitable solvent and different equivalents of acids were added under stirring at 50° C. for about 2 hours and then at 25° C. for at least 32 hours. Ethanol, acetone, and ACN were used as screening solvents. When no precipitation was obtained or only a few solids were obtained, the solutions were placed at 5° C. for crystallization.
(§2) Obtained suspensions were taken out and centrifuged. Solids obtained was analysed by XRPD. Salts with high or medium crystallinity were further characterized (see Table 5).

[5] = Crystallinity by XRPD; format: physicochemical
Description: as §2, §1

[6] = Thermogravimetric analysis (TGA) weight loss; format: physicochemical; conditions: salt screening sample, at the temperature given (80-200° C.)
Source text: as §1

[7] = format: physicochemical; conditions: for chemical purity (%): solid state
[8] = format: physicochemical; conditions: salt screening sample
Source text: as §1

[9] = at the temperature printed in the same cell (100-170° C.)
[10] = listed as hydrochloride salt (polymorph A)

For COc1cc(C(F)(F)F)c(OC)cc1[C@@H]1CCCNC1.O=C(O)C(O)C(O)C(=O)O [L-tartrate salt (Polymorph B, anhydrate), L-tartaric acid salt of (S)-3-(2,5-dimethoxy-4-(trifluoromethyl)phenyl)piperidine], the “Desorp. (%)” value ([1]; 0% RH) was 0.01%, the “Sorp. (%)” value ([1]; 0% RH) was 0.04% and the “Desorp. (%)” value ([1]; 10% RH) was 0.03%. The “Sorp. (%)” value ([1]; 10% RH) was 0.06%, the “Desorp. (%)” value ([1]; 20% RH) was 0.07% and the “Sorp. (%)” value ([1]; 20% RH) was 0.08%. For the same compound, the “Water absorbed from 40% RH to 95% RH” value [1] was “about 1.5%”, the “Desorp. (%)” value ([1]; 30% RH) was 0.10% and the “Sorp. (%)” value ([1]; 30% RH) was 0.10%. The “Desorp. (%)” value ([1]; 40% RH) was 0.13%, the “Sorp. (%)” value ([1]; 40% RH) was 0.12% and the “Desorp. (%)” value ([1]; 50% RH) was 0.19%. For the same compound, the “Sorp. (%)” value ([1]; 50% RH) was 0.13%, the “Desorp. (%)” value ([1]; 60% RH) was 0.29% and the “Sorp. (%)” value ([1]; 60% RH) was 0.15%. The “Desorp. (%)” value ([1]; 70% RH) was 0.48%, the “Sorp. (%)” value ([1]; 70% RH) was 0.19% and the “Desorp. (%)” value ([1]; 80% RH) was 0.67%. For the same compound, the “Sorp. (%)” value ([1]; 80% RH) was 0.66%, the “Desorp. (%)” value ([1]; 90% RH) was 1.18% and the “Sorp. (%)” value ([1]; 90% RH) was 1.00%. The “Desorp. (%)” value ([1]; 95% RH) was 1.60%, the “Sorp. (%)” value ([1]; 95% RH) was 1.60% and the “XRPD after DVS test” value [1] was “No form changes”. The Hygroscopicity [1] was “slightly hygroscopic”, the “Weight loss (%) at Temperature (° C.)” value [2, 9] was 0.4 at % and the “Weight loss (%) at Temperature (° C.)” value ([2]; at the temperature printed in the same cell (100-170° C.), listed as L-tartrate salt Polymorph B) was “about 0.4%”. The Hygroscopicity [3] was “None”, the “Polymorph obtained in salt screening” value ([4]; ACN) was “Polymorph B” and the Salt screening result ([4]; ACN) was “+”. For the same compound, the “Polymorph obtained in salt screening” value ([4]; Acetone) was “Polymorph B”, the Salt screening result ([4]; Acetone) was “+” and the “Polymorph obtained in salt screening” value ([4]; EtOH) was “Polymorph B”. The Salt screening result ([4]; EtOH) was “+”, the Crystallinity ([5]; large scale batch) was “High” and the Crystallinity ([5]; large scale batch, listed as L-tartrate salt Polymorph B) was “high crystallinity”. The Crystallinity ([5]; salt screening sample) was “High” and the “Weight loss (%)” value [6] was 0.9%.
In the case of COc1cc(C(F)(F)F)c(OC)cc1[C@@H]1CCCNC1.Cl [HCl salt of (S)-3-(2,5-dimethoxy-4-(trifluoromethyl)phenyl)piperidine], the “Desorp. (%)” value ([1]; 0% RH) is reported as 0.01%, the “Sorp. (%)” value ([1]; 0% RH) is reported as 0.00% and the “Desorp. (%)” value ([1]; 10% RH) is reported as 0.01%. For the same compound, the “Sorp. (%)” value ([1]; 10% RH) was 0.01%, the “Desorp. (%)” value ([1]; 20% RH) was 0.012% and the “Sorp. (%)” value ([1]; 20% RH) was 0.01%. For the same compound, the “Water absorbed from 40% RH to 95% RH” value [1] was “about 0.17%”, the “Desorp. (%)” value ([1]; 30% RH) was 0.03% and the “Sorp. (%)” value ([1]; 30% RH) was 0.01%. For the same compound, the “Desorp. (%)” value ([1]; 40% RH) was 0.03%, the “Sorp. (%)” value ([1]; 40% RH) was 0.01% and the “Desorp. (%)” value ([1]; 50% RH) was 0.04%. The “Sorp. (%)” value ([1]; 50% RH) was 0.01%, the “Desorp. (%)” value ([1]; 60% RH) was 0.04% and the “Sorp. (%)” value ([1]; 60% RH) was 0.02%. For the same compound, the “Desorp. (%)” value ([1]; 70% RH) was 0.04%, the “Sorp. (%)” value ([1]; 70% RH) was 0.03% and the “Desorp. (%)” value ([1]; 80% RH) was 0.07%. For the same compound, the “Sorp. (%)” value ([1]; 80% RH) was 0.05%, the “Desorp. (%)” value ([1]; 90% RH) was 0.12% and the “Sorp. (%)” value ([1]; 90% RH) was 0.12%. For the same compound, the “Desorp. (%)” value ([1]; 95% RH) was 0.19%, the “Sorp. (%)” value ([1]; 95% RH) was 0.19% and the Hygroscopicity [1, 10] was “non-hygroscopic”. The “XRPD after DVS test” value [1, 10] was “No form changes”, the “Initial chemical purity (%)” value ([7]; before storage) was 99.8% and the “chemical purity (%)” value ([7]; 25° C./92% RH, open container, 1 week) was 99.8%. For the same compound, the “chemical purity (%)” value ([7]; 40° C./75% RH, open container, 1 week) was 99.8%, the “chemical purity (%)” value ([7]; 60° C., tight container, 1 week) was 99.8% and the Bulk stability ([7]; stressed conditions: 25° C./92% RH, 40° C./75% RH, 60° C., 1 week) was “chemically and physically stable”. The “Weight loss (%) at Temperature (° C.)” value ([2]; at the temperature (100-170° C.), listed as hydrochloride salt (polymorph A)) was “about 0.3%”, the “Weight loss (%) at Temperature (° C.)” value [2, 9] was 0.3 at % and the Hygroscopicity [3] was “None”. The “Polymorph obtained in salt screening” value ([4]; ACN) was “Polymorph A”, the Salt screening result ([4]; ACN) was “+” and the “Polymorph obtained in salt screening” value ([4]; Acetone) was “Polymorph A”. The Salt screening result ([4]; Acetone) was “+”, the “Polymorph obtained in salt screening” value ([4]; EtOH) was “Polymorph A” and the Salt screening result ([4]; EtOH) was “+”. The Crystallinity ([5]; large scale batch) was “High”, the Crystallinity ([5]; large scale batch, listed as hydrochloride salt (polymorph A)) was “high crystallinity” and the Crystallinity ([5]; salt screening sample) was “High”. For the same compound, the “Weight loss (%)” value [6] was 0.08%.
With COc1cc(C(F)(F)F)c(OC)cc1[C@@H]1CCCNC1.N[C@@H](CC(=O)O)C(=O)O [L-aspartate salt Polymorph A] the “Hygroscopicity (water uptake % w/w)” value [3] was “(~4.3%) % w/w”, the Hygroscopicity [3] was “Hygroscopic” and the “Polymorph obtained in salt screening” value ([4]; ACN) was “Polymorph A”. The Salt screening result ([4]; ACN) was “+”, the Salt screening result ([4]; Acetone) was “−” and the “Polymorph obtained in salt screening” value ([4]; EtOH) was “Polymorph A”. The Salt screening result ([4]; EtOH) was “+”, the “Water content (% w/w)” value [8] was 7.0% w/w and the Crystallinity ([5]; salt screening sample) was “High”. The “Weight loss (%)” value [6] was 3.9%.
For COc1cc(C(F)(F)F)c(OC)cc1[C@@H]1CCCNC1.C[C@H](O)C(=O)O [L-lactate salt Polymorph A], the Hygroscopicity [3] was “None”, the “Polymorph obtained in salt screening” value ([4]; ACN) was “Polymorph A” and the Salt screening result ([4]; ACN) was “+”. For the same compound, the Salt screening result ([4]; Acetone) was “Thin suspension”, the Salt screening result ([4]; EtOH) was “Clear solution” and the “Water content (% w/w)” value [8] was 5.1% w/w. The Crystallinity ([5]; salt screening sample) was “High” and the “Weight loss (%)” value [6] was 4.9%.
